Where a name gives a salt, the structure may show the parent alone. Read-outs that look alike come from different tables or passages of the source.
Key:
E. cloacae 1Y247 = test: MIC; type: cell-based; details: Enterobacter cloacae, Table 3, sodium salt, read-out: MIC
Experimental: The minimum inhibition concentrations (MIC) of the compounds obtained in the respective examples described above were measured according to the standard method of Japanese Chemotherapy Association.

C. freundii 1R523 = test: MIC; details: Citrobacter freundii, 1R523
C. freundii 1R526 = test: MIC; details: Citrobacter freundii, 1R526
P. cepacia OF189 = test: MIC; details: Burkholderia cepacia, OF189, P. cepacia OF189; Table 2, sodium salt
P. vulgaris GN7919 = test: MIC; details: Proteus vulgaris, GN7919
C. freundii 5D60-1 = test: MIC; details: Citrobacter freundii, 5D601
P. maltophilia OF247 = test: MIC; details: Stenotrophomonas maltophilia, Table 2, sodium salt
E. coli NIHJ JC-2 = test: MIC; type: cell-based; details: Escherichia coli, NIHJJC2, Table 2, sodium salt
Experimental: (§1) The minimum inhibition concentrations (MIC) of the compounds obtained in Example 1 and Example 2 were measured according to the standard method of Japanese Chemotherapy Association.

A. calcoaceticu OF1063 = test: MIC; type: cell-based; details: Table 2, sodium salt
Experimental: as §1

A. xylosoxidans OF1001 = test: MIC; type: cell-based; details: Achromobacter xylosoxidans, Table 2, sodium salt
Experimental: as §1

E. coli GN5482 = test: MIC; details: Escherichia coli, GN5482, E. coli GN5482; Table 2, sodium salt
E. cloacae 908RN = test: MIC; details: Enterobacter cloacae
E. cloacae 1V25 = test: MIC; details: Enterobacter cloacae
E. cloacae 5D52-2 = test: MIC; details: Enterobacter cloacae, 5D522
C. freundii 1R527 = test: MIC; details: Citrobacter freundii, 1R527
E. colacae GN7471 = test: MIC; details: Table 2, sodium salt
E. cloacae 5D63-2 = test: MIC; details: Enterobacter cloacae, 5D632
E. coli ML4707 = test: MIC; details: Escherichia coli, ML4707, E. coli ML4707; Table 2, sodium salt
C. freundii 1U692 = test: MIC; details: Citrobacter freundii, 1U692
P. aeruginosa 5D58-1 = test: MIC; details: Pseudomonas aeruginosa, 5D581, P. aeruginosa 5D58-1; Table 2, sodium salt
C. freundii 1U589 = test: MIC; details: Citrobacter freundii, 1U589
[1] = central and tissue distribution volume in Macaco (parenteral, HPLC); type: in vivo; details: monkey, blood, 20 mg/kg, 20 mg/kg parenteral, sodium salt
Experimental: 20 mg/kg of the compound obtained in Example 1 was administered parenterally to Macaco and a central distribution volume and a tissue distribution volume were calculated by their concentrations in blood measured with time.
The concentration of the compound was measured according to HPLC method. Microbondapack C18 (trade name, produced by Waters Co.) was used as a column and 8% acetonitrile-2% tetrahydrofuran-0.2% phosphoric acid was used as a solvent.

C. freundii 1R524 = test: MIC; details: Citrobacter freundii, 1R524
K. pneumoniae 4at521 = test: MIC; details: Klebsiella pneumoniae, 4AT521
S. aureus Smith = test: MIC; details: Staphylococcus aureus, Table 2, sodium salt
C. freundii GN7391 = test: MIC; details: Citrobacter freundii, GN7391, C. freundii GN7391
S. marcescens GN10857 = test: MIC; details: Serratia marcescens, GN10857, S. marcescens GN10857; Table 2, sodium salt
P. aeruginosa GN10362 = test: MIC; details: Pseudomonas aeruginosa, GN10362
P. aeruginosa 4au542 = test: MIC; details: Pseudomonas aeruginosa, 4AU542, P. aeruginosa 4au542; Table 2, sodium salt

MIC (E. cloacae 1Y247): > 100 µg/mL
MIC (C. freundii 1R523): 25 µg/mL
MIC (C. freundii 1R526): 25 µg/mL
MIC (P. cepacia OF189): 0.025 µg/mL
MIC (P. vulgaris GN7919): 3.13 µg/mL
MIC (C. freundii 5D60-1): 50 µg/mL
MIC (P. maltophilia OF247): 0.78 µg/mL
MIC (E. coli NIHJ JC-2): 0.1 µg/mL
MIC (A. calcoaceticu OF1063): 3.13 µg/mL
MIC (A. xylosoxidans OF1001): 1.56 µg/mL
MIC (E. coli GN5482): 1.56 µg/mL
MIC (E. cloacae 908RN; E. cloacae 908RN, Table 3, sodium salt): > 100 µg/mL
MIC (E. cloacae 908RN; E. colacae 908RN, Table 2, sodium salt): > 100 µg/mL
MIC (E. cloacae 1V25): 50 µg/mL
MIC (E. cloacae 5D52-2): 25 µg/mL
MIC (C. freundii 1R527): 12.5 µg/mL
MIC (E. colacae GN7471): 25 µg/mL
MIC (E. cloacae 5D63-2): 50 µg/mL
MIC (E. coli ML4707): 0.025 µg/mL
MIC (C. freundii 1U692): 25 µg/mL
MIC (P. aeruginosa 5D58-1): 0.2 µg/mL
MIC (C. freundii 1U589): 12.5 µg/mL
Vd ([1]; read-out: Central distribution volume): 0.144 L/kg
Vd ([1]; read-out: Tissue distribution volume): 0.295 L/kg
MIC (C. freundii 1R524): 12.5 µg/mL
MIC (K. pneumoniae 4at521): 0.012 µg/mL
MIC (S. aureus Smith): 6.26 µg/mL
MIC (C. freundii GN7391; Table 2, sodium salt): > 100 µg/mL
MIC (C. freundii GN7391; Table 3, sodium salt): > 100 µg/mL
MIC (S. marcescens GN10857): 0.78 µg/mL
MIC (P. aeruginosa GN10362): 0.05 µg/mL
MIC (P. aeruginosa 4au542): 0.05 µg/mL
SMILES: CC(C)(ON=C(C(=O)NC1C(=O)N2C(C(=O)O)=C(COC(N)=O)CSC12)c1csc(N)n1)C(=O)NNC(=O)c1ccc(O)c(O)c1 (centres unmarked) [Example 1, 7-{2-[2-amino-1,3-thiazol-4-yl]-2-[1-(3-(3,4-dihydroxybenzoyl)carbazoyl)-1-methylethoxyimino]acetamide}-3-carbamoyloxymethyl-3-cephem-4-carboxylic acid.hydrochloride]
